Measured values taken from patent US20250205276A1, “COMPOSITIONS AND METHODS OF TREATMENT OF DISEASE USING COMBINATION OF A NITRODILATOR AND A NITROGEN OXIDE COMPOUND” (LOMA LINDA UNIVERSITY, priority 2022, published 2025).
Read-outs that look alike come from different tables or passages of the source.

Legend:
[1] = tested on: mesenteric vasculature of rats; assay: Mesenteric vasodilatory response to nitrodilators after chronic pretreatment of rats; type: in vivo; details: for effect of pretreatment on mesenteric vasodilatory response to nitrodilators: pretreatment for four days
Method: (§1) Likewise, NTG has been thought to activate sGC by releasing the NO moiety from its nitrate group via the action of enzymes such as aldehyde dehydrogenase-2. However, this conversion produces nitrite rather than NO, especially at therapeutic NTG concentrations (<1 μM).

[2] = tested on: sGC-cGMP pathway; assay: Potentiation of nitrodilator vasodilation by sGC-cGMP pathway agents in vitro; type: cell-based
Text: In certain embodiments, the combined application of a nitrodilator and a nitrogen oxide compound is affected by a perturbation in the sGC-cGMP pathway. Vasodilation mediated by the nitrodilator and/or nitrogen oxide compound can be further facilitated by agents that enhance the sGC-cGMP pathway. Such agents include sGC stimulators and activators, cGMP-phosphodiesterase inhibitors, and others. The sGC stimulators directly activate reduced-heme-containing sGC that generates cGMP to cause vasodilation. The sGC activators activate sGC when the heme is oxidized or the heme moiety is missing. A sGC stimulator can be riociguat or vericiguat. The sGC activator can be runcaciguat, cinaciguat, ataciguat, or kynurenine. The cGMP-phosphodiesterase inhibitors, such as sildenafil, vardenafil, and tadalafil, stabilize cGMP via preventing its degradation by phosphodiesterase-5. […] Certain embodiments include methods of treating a vascular condition or a respiratory condition in a human subject by administering a therapeutically effective amount of a nitrogen oxide compound and a cGMP-phosphodiesterase inhibitor. […] The potentiation effects of riociguat and sildenafil on vasodilation by nitrodilators including GSNO have been confirmed in vitro.

[3] = tested on: isolated sheep femoral arteries; assay: Use-dependent loss of vasodilatory response to GSNO in isolated arteries, potentiation and reversal; type: cell-based
Method: To increase the store experimentally, isolated sheep femoral arteries were pre-exposed to 1 μM nitrite, a concentration two-to-three orders of magnitude below which nitrite itself causes vasodilation.

[4] = tested on: intact rats; assay: Femoral vasodilation in intact rats treated with L-NAME; type: in vivo; details: for femoral vasodilation in response to the SNO: rats treated with L-NAME
[5] = tested on: intact sheep; assay: Femoral vasodilation in intact sheep treated with L-NAME; type: in vivo; details: for femoral vasodilation in response to the SNO: sheep treated with L-NAME
[6] = tested on: sheep carotid artery; assay: Mobilization of N15-NOx from sheep carotid artery by intraluminal GSNO (GC-MS); details: 2 h, vs control
Method: FIG. 4A is an illustration of the protocol. A sheep carotid artery (length 8 cm) was incubated with 10 μM N^15-nitrite in DMEM under 10.5% O2 for 6 h to load the vessel with N^15-NOx (NO metabolites). FIG. 4B is an illustration of the prepared vessels. After extensive washes, the arteries were well sealed and incubated for 2 h with 3 ml 100 μM oxyhemoglobin in HEPES buffer on the extraluminal side and 5 μM GSNO or control (0.7 ml HEPES buffer containing 0.1 mM DTPA) on the luminal side. FIG. 4C is a graphical representation of the response of the arteries exposed to GSNO. The N^15-NOx levels were lower (p=0.0206) in the homogenate of arteries exposed to GSNO. FIG. 4D is a graphical representation of the response of the arteries exposed to intraluminal GSNO. The N^15-NOx in extraluminal buffer was higher (p=0.0400) in the arteries exposed to intraluminal GSNO. N^15-NOx was measured by GC-MS. The results are consistent with intraluminal GSNO stimulating an efflux of NOx from the vascular smooth muscle as manifested by a decrease in intracellular NOx and an increase in extracellular NOx.
DNICs function as an intracellular NO store. NO can be stored as DNICs in ferritin, a cytosolic protein that stores and releases iron in controlled fashion. […] N^15-NOx was measured by GC-MS. […]

[7] = not told
[8] = cited from earlier work; for membrane permeability in words: Hogg et al
[9] = tested on: isolated sheep mesenteric arteries; assay: Relaxation of endothelium-denuded sheep mesenteric arteries contracted with 5-HT; type: cell-based; details: for enabling of inhibition of vasodilation by CPTIO: SOD1 1000 U/ml, converts HNO into NO
Method: Isolated sheep mesenteric arteries were denuded of endothelium and contracted with 10 μM 5-HT (n=5). FIG. 5A presents examples of relaxation traces (one animal, six arterial strips) of NTG in the absence and presence of an sGC inhibitor (ODQ) (10 μM) or superoxide dismutase (SOD1) (1000 U/ml, converts HNO into NO), or the extracellular NO scavenger CPTIO (200 μM), or SOD1 and CPTIO together. All traces were normalized for comparison of extent of relaxation.
FIG. 5B is a graphical representation of the amplification of the area in the red circle in ‘A’. FIG. 5C is a graphical representation of the effects of SOD1, CPTIO, SOD1+CPTIO, and ODQ on relaxation in response to Nitroglycerin. FIG. 5D is a graphical representation of the effects of SOD1, CPTIO, and SOD1+CPTIO on relaxation in response to nitrosoglutathione (GSNO). SOD1, via putative conversion of HNO to NO, enables the inhibitory effects of CPTIO on relaxation caused by NTG and GSNO.
As discussed above, there are reasons to doubt whether NO itself is the mediator of sGC activation in the NANOS model. Rather, an equivalent of NO may be released by activation of the NANOS. […] The NO equivalent has HNO-like characteristics. […] Isolated sheep mesenteric arteries were denuded of endothelium and contracted with 10 μM 5-HT (n=5). FIG. 5A presents examples of relaxation traces (one animal, six arterial strips) of NTG in the absence and presence of an sGC inhibitor (ODQ) (10 μM) or superoxide dismutase (SOD1) (1000 U/ml, converts HNO into NO, or the extracellular NO scavenger CPTIO (200 μM), or SOD1 and CPTIO together. All traces were normalized for comparison of extent of relaxation. FIG. 5B is a graphical representation of the amplification of the area in the red circle in ‘A’. FIG. 5C is a graphical representation of the effects of SOD1, CPTIO, SOD1+CPTIO, and ODQ on relaxation in response to Nitroglycerin (NTG). FIG. 5D is a graphical representation of the effects of SOD1, CPTIO, and SOD1+CPTIO on relaxation in response to nitrosoglutathione (GSNO). SOD1, via putative conversion of HNO to NO, enables the inhibitory effects of CPTIO on relaxation caused by NTG and GSNO.

[10] = tested on: isolated arteries; assay: Vasodilation of isolated arteries (potency, sustainability); type: cell-based; details: read-out: EC50 (vasodilatory sensitivity)
Method: as §1

[11] = Ability to release NO / stability
[12] = tested on: coronary arteries
Text: SNOs, DNICs, heme-NO, nitroprusside, NTG, and other nitrodilators, dilate vessels via activation of soluble guanylyl cyclase (sGC) in vascular smooth muscle cells. These nitrodilators have potent NO-mimetic vasoactivities despite not releasing requisite amounts of free NO. These nitrodilators activate sGC via a preformed NANOS found within the vascular smooth muscle cell. Other examples of the nitrodilators include, but are not limited to, isosorbide dinitrate, isosorbide mononitrate, and nitrosyl complexes with metals or metalloproteins with metals other than iron.

[13] = tested on: newborn lambs; details: low micromolar intravenous nitrite

In the case of `COC(=O)[C@H](N)CCCNC(=N)N[N+](=O)[O-]` [D-NAME, D-NG-Nitro arginine methyl ester], the “effect of chronic pretreatment on mesenteric vasodilation by GSNO, glut-BDNIC and NTG” value [1] is reported as “potentiated” and the “effect of pretreatment on mesenteric vasodilatory response to nitrodilators” value (shortened to “effect of pretreatment”) [1] is reported as “potentiated”.

In the case of `CCCc1nn(C)c2c(=O)[nH]c(-c3cc(S(=O)(=O)N4CCN(C)CC4)ccc3OCC)nc12` [sildenafil], the “effect on vasodilation by nitrodilators including GSNO” value [2] is reported as “potentiation”.

In the case of `N[C@@H](CCC(=O)N[C@@H](CSN=O)C(=O)NCC(=O)O)C(=O)O` [GSNO, S-nitroso-glutathione], the “loss of initial vasodilatory response to GSNO” value ([3]; isolated vessels, after repeated exposures to GSNO) is reported as roughly 50%, the “femoral vasodilation in response to the SNO” value (from here on “femoral vasodilation”) [4] is reported as “greatly diminished or even absent” and the “femoral vasodilation” value [5] is reported as “greatly diminished or even absent”. For the same compound, the “N15-NOx levels in homogenate of arteries” value ([6]; 5 μM GSNO luminal side, p=0.0206) was “lower”, the “N15-NOx in extraluminal buffer” value ([6]; 5 μM intraluminal GSNO, p=0.0400) was “higher” and the Membrane permeability [7] was “−”. The “membrane permeability in words” value [8] was “largely membrane-impermeable” and the “membrane permeability, fold less than L-cysNO” value ([8]; relative to L-cysNO) was 200 fold.

With `CC1(C)N([O])C(c2ccc(C(=O)O)cc2)=[N+]([O-])C1(C)C` [CPTIO] the “effect on NTG- or GSNO-mediated relaxation” value ([9]; CPTIO 200 μM) was “does not affect”.

For `[Cl][Cu]` [CuCl], the “enabling of inhibition of vasodilation by CPTIO” value [9] was “enable the inhibitory effects of CPTIO”.

For `O=[N+]([O-])OCC(CO[N+](=O)[O-])O[N+](=O)[O-]` [NTG, nitroglycerin], the EC50 [10] was less than 100 nM and the Membrane permeability [7] was “+”.

With `N[C@@H](CSN=O)C(=O)O` [L-cysNO, S-nitrosocysteine] the “femoral vasodilation” value [4] was “greatly diminished or even absent”, the “femoral vasodilation” value [5] was “greatly diminished or even absent” and the Membrane permeability [7] was “+”. For the same compound, the “membrane permeability in words” value [8] was “can be taken up into cells via the L-type amino acid transporter (LAT)”, the NO moiety released ([11]; over one hour, presence of metal chelator in PBS) was less than 10% and the “stability, fold less stable than GSNO” value ([11]; relative to GSNO) was 10 fold.

In the case of `COC(=O)N(C)c1c(N)nc(-c2nn(Cc3ccccc3F)c3ncccc23)nc1N` [riociguat], the “effect on vasodilation by nitrodilators including GSNO” value [2] is reported as “potentiation”.

In the case of `COC(=O)[C@@H](N)CCCNC(=N)N[N+](=O)[O-]` [L-NAME], the “effect of chronic pretreatment on mesenteric vasodilation by GSNO, glut-BDNIC and NTG” value [1] is reported as “potentiated” and the “effect of pretreatment” value [1] is reported as “potentiated”.

In the case of `CNC(=N)NCCC[C@H](N)C(=O)O` [L-NMMA], the “effect of pretreatment” value [1] is reported as “not observed”.

With `CC1(C)CC(O)CC(C)(C)N1[O]` [TEMPOL] the “enabling of inhibition of vasodilation by CPTIO” value [9] was “enable the inhibitory effects of CPTIO”.

For `O=NO` [nitrite], the “effect on vasodilatory responses to GSNO” value ([3]; arteries pre-exposed to 1 μM nitrite) was “potentiate”, the “attenuation of vasodilatory response to GSNO after repeated GSNO exposure” value ([3]; subsequent incubation with 1 μM nitrite for 30 min) was “reversed” and the “effect on vasodilatory responses to subsequent SNO infusions in femoral arteries” value ([4]; rats pre-treated with L-NAME, intravenous sub-vasodilatory nitrite) was “potentiated”. The “effect on vasodilatory responses to subsequent SNO infusions in femoral arteries” value ([5]; sheep pre-treated with L-NAME, intravenous sub-vasodilatory nitrite) was “potentiated”, the “effect on NTG tolerance of coronary arteries” value ([12]; in vitro) was “reverting NTG tolerance” and the “effect on NTG tolerance of coronary arteries” value ([12]; in vivo) was “reverting NTG tolerance”. The “effect on GSNO-mediated vasodilation” value [13] was “potentiate”.

In the case of `N[C@H](CSN=O)C(=O)O` [D-cysNO], the “femoral vasodilation” value [4] is reported as “greatly diminished or even absent”, the “femoral vasodilation” value [5] is reported as “greatly diminished or even absent” and the Membrane permeability [7] is reported as “−”. The “membrane permeability in words” value [8] was “largely membrane-impermeable”.

In the case of “SOD1: superoxide dismutase, converts HNO into NO”, the “enabling of inhibition of vasodilation by CPTIO” value [9] is reported as “enables inhibition of vasodilation by CPTIO”.

With `C=CC1=C(C)c2cc3[n-]c(cc4[n-]c(cc5nc(cc1n2)C(C)=C5C=C)c(C)c4CCC(=O)[O-])c(CCC(=O)[O-])c3C.N#[O+].[Fe].[H+].[H+]` [Heme-NO, nitrosyl-heme] the Membrane permeability [7] was “−”.
